# Experimental data as given in PMC7160673, “A Degenerate Peptide Library Approach to Reveal Sequence Determinants of Methyllysine-Driven Protein Interactions” (Frontiers in Cell and Developmental Biology, 2020).
# Where a SMILES comes first, the peptide text is derived from it. [ ]: non-standard residue; d: D form. The star is where a group is joined. 5FAM = O=C1OC2(c3ccc(O)cc3Oc3cc(O)ccc32)c2ccc(C(=O)*)cc21; Lys(Me3) = C[N+](C)(C)CCCC[C@H](N)C(=O)O
# Assays:
# Assay type in all cases: binding
# CDYL2 chromo [1] = target: T1, CDYL2 chromo (Homo sapiens, UniProt Q8N8U2); assay: Fluorescence polarization assay, CDYL2 chromo; settings: 10 nM N-terminal FAM peptide, 25 mM HEPES pH 7.5, 100 mM NaCl, 0.05% NP-40, average of 4 measurements from 2 independent experiments, error SD (Figure 4C)
# T1 construct: 1-75; made in house; host or cells: E. coli BL21
# T1 sequence (Q8N8U2 1-75): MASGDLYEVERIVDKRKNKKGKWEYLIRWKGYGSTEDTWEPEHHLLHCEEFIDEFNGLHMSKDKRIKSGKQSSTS
# Description: Plasmids encoding N-terminal GST fusions of each reader domain (Supplementary Table S1) were transformed into BL21 E. coli and protein expression was induced with 0.5 mM IPTG at 16°C for 6–16 h. Induced bacterial pellets were suspended in 30 mL cold 1× PBS supplemented with 1 mM DTT and 1 mM PMSF. Next, bacteria were incubated with lysozyme (Thermo #89833 LOT#ta262343) and 1 μL of Pierce universal nuclease (Pierce #88702 LOT#00775219) on ice for 30 min followed by 3 rounds of sonication (30 s sonication with 10 s rest, all on ice) using a Qsonica ultrasonic processor (500 W 20 kHz with 1/8” microtip) at 40% amplitude. Lysed bacteria were centrifuged at 38465 rcf for 45 min at 4°C. Cleared supernatant was incubated with 5 mL of Glutathione resin (Thermo #16101 LOT#UD285112) with rotation at 4°C for 16 h. Bound protein was washed 3× with 10 mL cold 1× PBS and eluted twice with 10 mL of 25 mM HEPES pH 7.5, 10 mM L-glutathione (Sigma), and 100 mM NaCl. Protein was concentrated by centrifugation at 1,500 rpm on a Sorvall Legend X1 centrifuge in Amicon Ultra-15 centrifugal filter units (UFC#903024). Protein was resuspended in 25 mM HEPES pH 7.5 and 100 mM NaCl and concentrated by centrifugation as above three times. Protein was quantified by absorbance measurement at 280 nm divided by the computed extinction coefficient (ExPASy) ([Gasteiger et al., 2003]) of the GST-tagged protein domain.
# Peptides functionalized with N-terminal 5-carboxyfluorescin (FAM) were synthesized by Genscript. All 7-mer motifs were synthesized with flanking glycines to mimic the Kme-OPL design. Binding assays were done in black 384 well plates (Corning #3575). […] Polarization was measured on a Synergy Neo fluorescence plate reader (Biotek) with a 485 ± 10 nm excitation filter and a 528 ± 10 nm emission filter. […] Anisotropy units (A) were calculated using the equation A = (2P)/(3-P). Dissociation constants were determined by non-linear regression analysis of anisotropy curves by specific binding with Hill slope in GraphPad version 8.3.0.
# [2] = tested on: ABClonal #A2355, anti-H3K4me1; assay: Histone peptide microarray, ABclonal A2355; settings: Abclonal A2355 (anti-H3K4me1) hits
# [3] = tested on: Millipore #07-449, anti-H3K27me3; assay: Histone peptide microarray, Millipore 07-449; settings: Millipore 07-449 (anti-H3K27me3) hits, average signal per peptide
# [4] = tested on: Abcam #ab8895, anti-H3K4me1; assay: Histone peptide microarray, Abcam ab8895; settings: Abcam ab8895 (anti-H3K4me1) hits, average signal per peptide
# 53BP1 TTD = assay: Histone peptide microarray, 53BP1 TTD; settings: 53BP1 TTD hits, average signal per peptide
# Procedure, shortened: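 Histone peptides were printed as microarrays and probed with protein or antibody in 25 mM HEPES pH 7.5, 100 mM NaCl, 0.5% BSA (w/v), 0.1% NP-40. Between steps, slides were washed 3 × 5 min in PBS with 0.1% Tween-20. Bound GST-tagged protein was detected with anti-GST (1:2,000), then AlexaFluor 647 secondary (1:5,000).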
# CDYL2 chromo [5] = target: T1, CDYL2 chromo; assay: Histone peptide microarray, CDYL2 chromo; settings: normalized histone peptide array signal, hits; hybridization with 1 M CDYL2 chromo (so in the source); two subarrays
# Description: (§1) Peptide microarrays were fabricated using an Aushon 2470 microarrayer and used as described ([Cornett et al., 2017]) with the following modifications. Protein and antibody hybridization steps were performed in buffer containing 25 mM HEPES pH 7.5, 100 mM NaCl, 0.5% BSA (w/v), and 0.1% NP-40. Slides were washed 3 × 5 min in PBS supplemented with 0.1% Tween-20 between each hybridization step. Antibodies used were primary anti-GST (Sigma #7781, 1:2,000 dilution) and an AlexaFluor 647-labeled secondary antibody (Life Technologies A-21245, 1:5,000 dilution). […] Full lists of peptides queried by array analysis are in Supplementary Table S2.
# MPP8 chromo = target: T2, MPP8 chromo (Homo sapiens, UniProt Q99549); assay: Histone peptide microarray, MPP8 chromo; settings: normalized histone peptide array signal, hits; hybridization with 1 M MPP8 chromo (so in the source); two subarrays
# T2 construct: 50-118; made in house; host or cells: E. coli BL21
# T2 sequence (Q99549 50-118): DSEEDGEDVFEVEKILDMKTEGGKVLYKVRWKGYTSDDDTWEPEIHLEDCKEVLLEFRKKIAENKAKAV
# Description: as §1
# [6] = tested on: Active Motif #39161, anti-H3K9me3; assay: Histone peptide microarray, Active Motif 39161; settings: Active Motif 39161 (anti-H3K9me3) hits
# CST 9733 (anti-H3K27me3) = assay: Histone peptide microarray, CST 9733; settings: histone peptide array signal normalized to the highest peptide average per subarray, hits; CST 9733 LOT:14 dilution 1:5,000
Molecule,Kd (CDYL2 chromo [1]),Avg Signal [2],Avg Signal [3],Avg Signal [4],Avg Signal (53BP1 TTD),Avg Signal (CDYL2 chromo [5]),Avg Signal (MPP8 chromo),Avg Signal [6],Avg Signal (CST 9733 (anti-H3K27me3))
C[C@H](NC(=O)[C@H](Cc1c[nH]c2ccccc12)NC(=O)CN)C(=O)N[C@@H](Cc1ccc(O)cc1)C(=O)N[C@@H](CCCC[N+](C)(C)C)C(=O)N[C@H](C(=O)NCC(=O)N[C@@H](CCCCN)C(=O)NCC(=O)O)[C@@H](C)O [GWAY(Kme3)TGKG] (H-GWAY[Lys(Me3)]TGKG-OH),0.1 ± 0.0066 µM,,,,,,,,
ARTK(Me3)QTARK(Me3)STGGKAPRKQL-K(Biot)-NH2 [H3.1K4me3K9me3],,0.008666,0.1282,0.01482,0.1303,0.4091,0.8973,1,0.02074
C[C@H](NC(=O)[C@H](CCCCN)NC(=O)CN)C(=O)N[C@@H](CCCCN)C(=O)N[C@@H](CCCC[N+](C)(C)C)C(=O)N[C@H](C(=O)NCC(=O)N[C@@H](CCCCN)C(=O)NCC(=O)O)[C@@H](C)O [GKAK(Kme3)TGKG] (H-GKAK[Lys(Me3)]TGKG-OH),3.6 ± 0.73 µM,,,,,,,,
ARTKQTAR(Me)K(Me3)STGGKAPRKQL-K(Biot)-NH2 [H3.1R8me1K9me3],,0.008113,0.03826,0.156,0.134,0.4762,0.8612,0.7313,0.005418
C[C@H](NC(=O)[C@@H](NC(=O)CNC(=O)c1ccc2c(c1)C(=O)OC21c2ccc(O)cc2Oc2cc(O)ccc21)[C@@H](C)O)C(=O)N[C@@H](CCCNC(=N)N)C(=O)N[C@@H](CCCC[N+](C)(C)C)C(=O)N[C@@H](CO)C(=O)N[C@H](C(=O)NCC(=O)NCC(=O)O)[C@@H](C)O [GTAR(Kme3)STGG] (5FAM-GTAR[Lys(Me3)]STGG-OH),18.4 ± 6 µM,,,,,,,,
